IC50 data for 22 molecules are collected here from patent US20240390340A1 (INCYTE CORPORATION, priority 2023, published 2024).

Where two headings read alike, the source gives them in different places. A value given as a limit tells only on which side of the number the result lay.

One assay deals with KRAS G12D (Homo sapiens, UniProt P01116, G12D). The experiment in a line: GDP-GTP exchange assay (bodipy-GDP/GppNHp, SOS1), KRAS G12D. It counts as biochemical.
Another assay deals with KRAS G12V (Homo sapiens, UniProt P01116, G12V). The experiment in a line: GDP-GTP exchange assay (bodipy-GDP/GppNHp, SOS1), KRAS G12V. It counts as biochemical.
[1] abbreviates: bodipy-loaded KRAS G12D 2.5 nM, 4 h pre-incubation, value for the most potent isomer quoted for certain compounds, read-out: G12D (KRAS G12D exchange assay IC50).
Where [2] appears, read: KRAS G12V mutant, value for the most potent isomer quoted for certain compounds, read-out: G12V (KRAS G12V exchange assay IC50).

Sequence of KRAS G12V (P01116 1-188 isoform P01116-2 G12V): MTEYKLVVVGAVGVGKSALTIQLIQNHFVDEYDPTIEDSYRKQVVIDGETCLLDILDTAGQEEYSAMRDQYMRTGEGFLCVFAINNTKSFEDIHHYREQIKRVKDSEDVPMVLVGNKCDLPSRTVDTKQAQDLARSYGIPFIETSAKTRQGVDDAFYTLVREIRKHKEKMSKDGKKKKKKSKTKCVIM
Sequence of KRAS G12D (P01116 1-188 isoform P01116-2 G12D): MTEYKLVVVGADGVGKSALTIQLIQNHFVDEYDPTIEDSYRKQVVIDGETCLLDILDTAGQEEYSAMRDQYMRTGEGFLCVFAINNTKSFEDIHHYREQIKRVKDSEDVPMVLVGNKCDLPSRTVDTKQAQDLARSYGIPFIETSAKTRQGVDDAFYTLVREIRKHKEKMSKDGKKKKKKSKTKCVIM

The IC50 is the point on the concentration scale where inhibition reaches its midpoint. Take `Cc1nc2c(F)c(-c3cccc(Cl)c3Cl)c(CCC#N)cc2c2c1cc([C@H]1C[C@H](OCC3(C#N)CC3)CN1C(=O)C1CC1)n2[C@H]1[C@H]2CN[C@@H]1C2` [Example 338]: the IC50 at KRAS G12D (setting [1]) and on KRAS G12V (setting [2]) was at most 100 nM each time.

As for `[2H]C([2H])(O[C@H]1C[C@H](c2cc3c(C)nc4c(F)c(-c5cccc(Cl)c5Cl)c(CCC#N)cc4c3n2[C@H]2[C@H]3CN[C@@H]2C3)N(C(=O)C2CC2)C1)c1nccs1` [Example 362], the half-inhibitory concentration (IC50) on KRAS G12D (setting [1]) and at KRAS G12V (setting [2]) was at most 100 nM in each case.

In the case of `Cc1ncccc1CO[C@H]1C[C@H](c2cc3c(C)nc4c(F)c(-c5cccc(Cl)c5Cl)c(CCC#N)cc4c3n2[C@H]2[C@H]3CN[C@@H]2C3)N(C(=O)C2CC2)C1` [Example 139], the IC50 at KRAS G12D (setting [1]) and on KRAS G12V (setting [2]) was at most 100 nM in each case.

Regarding `Cc1nc2c(F)c(-c3cccc(Cl)c3Cl)c(CCC#N)cc2c2c1cc([C@H]1C[C@H](Oc3cc(Cl)cc(C#N)c3)CN1C(=O)C1CC1)n2[C@H]1[C@H]2CN[C@@H]1C2` [Example 191], the IC50 on KRAS G12D (setting [1]) and at KRAS G12V (setting [2]) was at most 100 nM in each case.

As to `Cc1csnc1C(C)O[C@H]1C[C@H](c2cc3c(C)nc4c(F)c(-c5cccc(Cl)c5Cl)c(CCC#N)cc4c3n2[C@H]2[C@H]3CN[C@@H]2C3)N(C(=O)C2CC2)[C@@H]1C` (some centres unmarked) [Example 254], the half-maximal inhibitory concentration (IC50) on KRAS G12D (setting [1]) and at KRAS G12V (setting [2]) was at most 100 nM throughout.

Consider `COc1cc(F)cc(O[C@H]2C[C@H](c3cc4c(C)nc5c(F)c(-c6cccc(Cl)c6Cl)c(CCC#N)cc5c4n3[C@H]3[C@H]4CN[C@@H]3C4)N(C(=O)C3CC3)C2)c1` [Example 190], for which the half-inhibitory concentration (IC50) on KRAS G12D (setting [1]) and on KRAS G12V (setting [2]) was at most 100 nM each time.

Regarding `Cc1nc2c(F)c(-c3cccc(Cl)c3Cl)c(CCC#N)cc2c2c1cc([C@H]1C[C@H](OC[C@H]3C[C@H](C#N)C3)CN1C(=O)C1CC1)n2[C@H]1[C@H]2CN[C@@H]1C2` [Example 402], the half-inhibitory concentration (IC50) on KRAS G12D (setting [1]) and at KRAS G12V (setting [2]) was at most 100 nM each time.

Turning to `Cc1nc2c(F)c(-c3cccc(Cl)c3Cl)c(CCC#N)cc2c2c1cc([C@H]1C[C@H](O[C@@H]3CCOC3)CN1C(=O)C1CC1)n2[C@H]1[C@H]2CN[C@@H]1C2` [Example 30], the IC50 is at most 100 nM at KRAS G12D (Table H, column G12D, for compounds isolated as several atropisomers/diastereoisomers the value for the most potent isomer is quoted, read-out: KRAS G12D exchange assay IC50) and at most 100 nM at KRAS G12V (Table H, column G12V, for compounds isolated as several atropisomers/diastereoisomers the value for the most potent isomer is quoted, read-out: KRAS G12V exchange assay IC50).

As for `Cc1nc2c(F)c(-c3cccc(Cl)c3Cl)c(CCC#N)cc2c2c1cc([C@H]1C[C@H](OCc3cccnc3N)CN1C(=O)C1CC1)n2[C@H]1[C@H]2CN[C@@H]1C2` [Example 149], the IC50 at KRAS G12D (setting [1]) and on KRAS G12V (setting [2]) was at most 100 nM in each case.

Regarding `COc1cc(C#N)ccc1O[C@H]1C[C@H](c2cc3c(C)nc4c(F)c(-c5cccc(Cl)c5Cl)c(CCC#N)cc4c3n2[C@H]2[C@H]3CN[C@@H]2C3)N(C(=O)C2CC2)C1` [Example 292], the half-maximal inhibitory concentration (IC50) at KRAS G12D (setting [1]) and at KRAS G12V (setting [2]) was at most 100 nM throughout.

Turning to `COc1ncccc1O[C@H]1C[C@H](c2cc3c(C(C)O)nc4c(F)c(-c5cccc(Cl)c5Cl)c(CCC#N)cc4c3n2[C@H]2[C@H]3CN[C@@H]2C3)N(C(=O)C2CC2)C1` (some centres unmarked) [Example 221], the IC50 on KRAS G12D (setting [1]) and on KRAS G12V (setting [2]) was at most 100 nM throughout.

In the case of `Cc1nc2c(F)c(-c3cccc(Cl)c3Cl)c(CCC#N)cc2c2c1cc([C@H]1C[C@H](Oc3cccnc3OCC(F)(F)F)CN1C(=O)C1CC1)n2[C@H]1[C@H]2CN[C@@H]1C2` [Example 446], the half-inhibitory concentration (IC50) on KRAS G12D (setting [1]) and on KRAS G12V (setting [2]) was at most 100 nM each time.

As to `Cc1nc2c(F)c(-c3cccc(Cl)c3Cl)c(CCC#N)cc2c2c1cc([C@H]1C[C@H](Oc3cccc4c3cnn4C)CN1C(=O)C1CC1)n2[C@H]1[C@H]2CN[C@@H]1C2` [Example 133], the IC50 at KRAS G12D (setting [1]) and on KRAS G12V (setting [2]) was at most 100 nM throughout.

For `Cc1nc2c(F)c(-c3cccc(Cl)c3Cl)c(CCC#N)cc2c2c1cc([C@H]1C[C@H](OCc3cccnc3C(F)(F)F)CN1C(=O)C1CC1)n2[C@H]1[C@H]2CN[C@@H]1C2` [Example 268], the IC50 at KRAS G12D (setting [1]) and at KRAS G12V (setting [2]) was at most 100 nM in each case.

Take `Cc1nc2c(F)c(-c3cccc(Cl)c3Cl)c(CCC#N)cc2c2c1cc([C@H]1C[C@H](OCc3ccccc3S(C)(=O)=O)CN1C(=O)C1CC1)n2[C@H]1[C@H]2CN[C@@H]1C2` [Example 163]: the half-maximal inhibitory concentration (IC50) on KRAS G12D (setting [1]) and at KRAS G12V (setting [2]) was at most 100 nM in each case.

In the case of `Cc1nc2c(F)c(-c3cccc(Cl)c3Cl)c(CCC#N)cc2c2c1cc([C@H]1C[C@H](Oc3cncc4c3OCCC4)CN1C(=O)C1CC1)n2[C@H]1[C@H]2CN[C@@H]1C2` [Example 289], the concentration for half-maximal inhibition (IC50) on KRAS G12D (setting [1]) and at KRAS G12V (setting [2]) was at most 100 nM each time.

On to `COC(=O)c1ccc(-c2nnn([C@H]3C[C@H](c4cc5c(C)nc6c(F)c(-c7cccc(Cl)c7Cl)c(CCC#N)cc6c5n4[C@H]4[C@H]5CN[C@@H]4C5)N(C(=O)C4CC4)C3)n2)cc1` [Example 435], for which the IC50 on KRAS G12D (setting [1]) and at KRAS G12V (setting [2]) was at most 100 nM throughout.

Turning to `Cc1nc2c(F)c(-c3cccc(Cl)c3Cl)c(CCC#N)cc2c2c1cc([C@H]1C[C@H](n3cc(N4CCOCC4)cn3)CN1C(=O)C1CC1)n2[C@H]1[C@H]2CN[C@@H]1C2` [Example 428], the concentration for half-maximal inhibition (IC50) at KRAS G12D (setting [1]) and on KRAS G12V (setting [2]) was at most 100 nM each time.

Turning to `Cc1nc(CO[C@H]2C[C@H](c3cc4c(C)nc5c(F)c(-c6cccc(Cl)c6Cl)c(CCC#N)cc5c4n3[C@H]3[C@H]4CN[C@@H]3C4)N(C(=O)C3CC3)C2)sc1C` [Example 358], the IC50 at KRAS G12D (setting [1]) and at KRAS G12V (setting [2]) was at most 100 nM in each case.

For `Cc1nc2c(F)c(-c3cccc(Cl)c3Cl)c(CCC#N)cc2c2c1cc([C@H]1C[C@H](OCc3ccccc3C(F)(F)F)CN1C(=O)C1CC1)n2[C@H]1[C@H]2CN[C@@H]1C2` [Example 117], the IC50 at KRAS G12D (setting [1]) and at KRAS G12V (setting [2]) was at most 100 nM throughout.

As to `N#CCCc1cc2c(nc(-c3ccc(N4CCOCC4)nc3)c3cc([C@H]4C[C@H](OCc5c(F)cccc5F)CN4C(=O)C4CC4)n([C@H]4[C@H]5CN[C@@H]4C5)c32)c(F)c1-c1cccc(Cl)c1Cl` [Example 206], the IC50 on KRAS G12D (setting [1]) is 100 to 1000 nM; at KRAS G12V (setting [2]), at most 100 nM.

For `Cc1nc2c(F)c(-c3cccc(Cl)c3Cl)c(CCC#N)cc2c2c1cc([C@H]1C[C@H](Oc3ccnc4c3CCO4)CN1C(=O)C1CC1)n2[C@H]1[C@H]2CN[C@@H]1C2` [Example 329], the half-inhibitory concentration (IC50) at KRAS G12D (setting [1]) and on KRAS G12V (setting [2]) was at most 100 nM in each case.
